Several values for one entry are separate records, joined by “and”; a condition that tells them apart may be missing. Equal values may be shown once.
Assay: Viscosity in aqueous solution at 20° C. (Example 82, Tables 1 and 2)
Assay type: physicochemical
Conditions: for Viscosity 350 mgI/ml (CALCULATED): calculated for 350 mgI/ml; for Viscosity at 400 mgI/ml (CALCULATED): calculated for 400 mgI/ml
Experimental: The viscosities in aqueous solution at 20° C. for some further compounds described above were determined and are listed in Table 2. […]

[1] = iodine concentration 370 mgI/mL
[2] = iodine concentration 394 mgI/mL

In the case of `O=C(CO)Nc1c(I)c(CO)c(I)c(N(CCO)C(=O)CO)c1I` [Example 5, N,N′-Bis(hydroxyacetyl)-N-(2-hydroxyethyl)-3,5-diamino-2,4,6-triiodobenzylalcohol], the “Viscosity 350 mgI/ml (CALCULATED)” value is reported as 6.9 mPas, the “Viscosity at 400 mgI/ml (CALCULATED)” value is reported as 10.0 mPas and the “Viscosity 20° C.” value (concentration 435 mgI/ml) is reported as 13 mPas. For the same compound, the “Viscosity 20° C.” value (concentration 512 mgI/ml) was 29 mPas and the Viscosity (iodine concentration 435 mgI/mL) was 13 mPas.
With `O=C(CO)Nc1c(I)c(CO)c(I)c(N(CC(O)CO)C(=O)CO)c1I` (stereo not shown) [Example 7, N,N′-Bis(hydroxyacetyl)-N-(2,3-dihydroxypropyl)-3,5-diamino-2,4,6-triiodobenzylalcohol] the “Viscosity at 400 mgI/ml (CALCULATED)” value was 11.5 mPas, the “Viscosity 20° C.” value (concentration 361 mgI/ml) was 8 mPas and the Viscosity (iodine concentration 361 mgI/mL) was 8.0 mPas.
In the case of `CC(O)C(=O)Nc1c(I)c(CO)c(I)c(NC(=O)C(C)O)c1I` (stereo not shown) [Example 8, N,N′-Bis(2-hydroxypropionyl)-3,5-diamino-2,4,6-triiodobenzylalcohol], the “Viscosity at 400 mgI/ml (CALCULATED)” value is reported as 11.0 mPas, the “Viscosity 20° C.” value (concentration 370 mgI/ml) is reported as 8.3 mPas and the Viscosity [1] is reported as 8.3 mPas.
In the case of `CC(O)C(=O)Nc1c(I)c(CO)c(I)c(N(CC(O)CO)C(=O)C(C)O)c1I` (stereo not shown) [Example 11, N,N′-Bis(2-hydroxypropionyl)-N-(2,3-dihydroxypropyl)-3,5-diamino-2,4,6-triiodobenzylalcohol], the “Viscosity at 400 mgI/ml (CALCULATED)” value is reported as 15 mPas, the “Viscosity 20° C.” value (concentration 409 mgI/ml) is reported as 17 mPas and the Viscosity (iodine concentration 407 mgI/mL) is reported as 16 mPas.
With `O=C(Nc1c(I)c(CO)c(I)c(N(CCO)C(=O)C(O)CO)c1I)C(O)CO` (stereo not shown) [Example 13, N,N′-Bis(2,3-dihydroxypropionyl)-N-(2-hydroxyethyl)-3,5-diamino-2,4,6-triiodobenzylalcohol] the “Viscosity at 400 mgI/ml (CALCULATED)” value was 12.2 mPas, the “Viscosity 20° C.” value (concentration 398 mgI/ml) was 12 mPas and the Viscosity (iodine concentration 398 mgI/mL) was 12 mPas.
With `O=C(C(O)CO)N(CCO)c1c(I)c(CO)c(I)c(N(CCO)C(=O)C(O)CO)c1I` (stereo not shown) [Example 14, N,N′-Bis(2,3-dihydroxypropionyl)-N,N-bis(2-hydroxyethyl)-3,5-diamino-2,4,6-triiodobenzylalcohol] the “Viscosity at 400 mgI/ml (CALCULATED)” value was 15.8 mPas, the “Viscosity 20° C.” value (concentration 373 mgI/ml) was 12.0 mPas and the Viscosity (iodine concentration 373 mgI/mL) was 12 mPas.
With `O=C(Nc1c(I)c(CO)c(I)c(N(CC(O)CO)C(=O)C(O)CO)c1I)C(O)CO` (stereo not shown) [Example 15, N,N′-Bis(2,3-dihydroxypropionyl)-N-(2,3-dihydroxypropyl)-3,5-diamino-2,4,6-triiodobenzylalcohol] the “Viscosity at 400 mgI/ml (CALCULATED)” value was 17.8 mPas and 14.9 mPas, the “Viscosity 20° C.” value (concentration 291 mgI/ml) was 5.4 mPas and the “Viscosity 20° C.” value (concentration 384 mgI/ml) was 15 mPas. For the same compound, the “Viscosity 20° C.” value (concentration 394 mgI/ml) was 14 mPas, the Viscosity (iodine concentration 348 mgI/mL) was 7.8 mPas and the Viscosity [2] was 14 mPas. The Viscosity (iodine concentration 446 mgI/mL) was 22 mPas and the Viscosity (iodine concentration 537 mgI/mL) was 75 mPas.
For `O=C(NCC(O)CO)c1c(I)c(CO)c(I)c(N(CC(O)CO)C(=O)CO)c1I` (stereo not shown) [Example 26, 5-[N′-(2,3-Dihydroxypropyl)-hydroxyacetamido]-3-hydroxymethyl-N-(2,3-dihydroxypropyl)-2,4,6-triiodobenzamide], the “Viscosity 350 mgI/ml (CALCULATED)” value was 9.4 mPas, the “Viscosity at 400 mgI/ml (CALCULATED)” value was 15.1 mPas and the “Viscosity 20° C.” value (concentration 385 mgI/ml) was 13 mPas. It also gave a Viscosity (iodine concentration 385 mgI/mL) of 13 mPas.
With `CC(O)C(=O)Nc1c(I)c(CO)c(I)c(C(=O)NCC(O)CO)c1I` (stereo not shown) [Example 27, 5-(2-Hydroxypropionylamino)-3-hydroxymethyl-N-(2,3-dihydroxypropyl)-2,4,6-triiodobenzamide] the “Viscosity at 400 mgI/ml (CALCULATED)” value was 12.5 mPas, the “Viscosity 20° C.” value (concentration 412 mgI/ml) was 14 mPas and the Viscosity (iodine concentration 412 mgI/mL) was 14 mPas.
With `CC(O)C(=O)N(CCO)c1c(I)c(CO)c(I)c(C(=O)NCC(O)CO)c1I` (stereo not shown) [Example 28, 5-[N′-(2-Hydroxyethyl)-2-hydroxypropionylamino]-3-hydroxymethyl-N-(2,3-dihydroxypropyl)-2,4,6-triiodobenzamide] the “Viscosity 350 mgI/ml (CALCULATED)” value was 9.2 mPas, the “Viscosity at 400 mgI/ml (CALCULATED)” value was 14.6 mPas and the “Viscosity 20° C.” value (concentration 404 mgI/ml) was 15 mPas. It also gave a Viscosity (iodine concentration 404 mgI/mL) of 15 mPas.
With `O=C(NCC(O)CO)c1c(I)c(CO)c(I)c(N(CCO)C(=O)C(O)CO)c1I` (stereo not shown) [Example 30, 5-[N′-(2-Hydroxyethyl)-2,3-dihyroxypropionylamino]-3-hydroxymethyl-N-(2,3-dihydroxypropyl)-2,4,6-triiodobenzamide] the “Viscosity 350 mgI/ml (CALCULATED)” value was 13.4 mPas, the “Viscosity at 400 mgI/ml (CALCULATED)” value was 23.3 mPas and the “Viscosity 20° C.” value (concentration 391 mgI/ml) was 21 mPas. The Viscosity (iodine concentration 391 mgI/mL) was 21 mPas.
For `CC(CO)(CO)C(=O)Nc1c(I)c(CO)c(I)c(C(=O)NCC(O)CO)c1I` (stereo not shown) [Example 32, 5-(3-Hydroxy-2-methyl-2-hydroxymethyl-propionylamino)-3-hydroxymethyl-N-(2,3-dihydroxypropyl)-2,4,6-triiodobenzamide], the “Viscosity at 400 mgI/ml (CALCULATED)” value was 17.4 mPas, the “Viscosity 20° C.” value (concentration 403 mgI/ml) was 18 mPas and the Viscosity (iodine concentration 403 mgI/mL) was 18 mPas.
With `O=C(NCC(O)CO)c1c(I)c(CO)c(I)c(NC(=O)C(CO)(CO)CO)c1I` (stereo not shown) [Example 33, 5-(3-Hydroxy-2,2-dihydroxymethyl-propionylamino)-3-hydroxymethyl-N-(2,3-dihydroxypropyl)-2,46-triiodobenzamide] the “Viscosity at 400 mgI/ml (CALCULATED)” value was 22.9 mPas, the “Viscosity 20° C.” value (concentration 370 mgI/ml) was 16 mPas and the Viscosity [1] was 16 mPas.
For `O=C(NC(CO)C(O)CO)c1c(I)c(CO)c(I)c(N(CCO)C(=O)CO)c1I` (stereo not shown) [Example 35, 5-[N′-(2-Hydroxyethyl)-hydroxyacetamido]-3-hydroxymethyl-N-(1,3,4-trihydroxybut-2-yl)-2,4,6-triiodobenzamide], the “Viscosity 350 mgI/ml (CALCULATED)” value was 9.6 mPas, the “Viscosity at 400 mgI/ml (CALCULATED)” value was 15.5 mPas and the “Viscosity 20° C.” value (concentration 394 mgI/ml) was 15 mPas. The Viscosity [2] was 15 mPas.
For `O=C(NC(CO)C(O)CO)c1c(I)c(CO)c(I)c(N(CC(O)CO)C(=O)CO)c1I` (stereo not shown) [Example 36, 5-[N′-(2,3-Dihydroxypropyl)-hydroxyacetamido]-3-hydroxymethyl-N-(1,3 4-trihydroxybut-2-yl)-2,4.6-triiodobenzamide], the “Viscosity 350 mgI/ml (CALCULATED)” value was 10.6 mPas, the “Viscosity at 400 mgI/ml (CALCULATED)” value was 17.7 mPas and the “Viscosity 20° C.” value (concentration 382 mgI/ml) was 15 mPas. The Viscosity (iodine concentration 382 mgI/mL) was 15 mPas.
With `CC(O)C(=O)Nc1c(I)c(CO)c(I)c(C(=O)NC(CO)C(O)CO)c1I` (stereo not shown) [Example 37, 5-(2-Hydroxypropionylamino)-3-hydroxymethyl-N-(1,3,4-tri-hydroxybut-2-yl)-2,4,6-triiodobenzamide] the “Viscosity at 400 mgI/ml (CALCULATED)” value was 15.6 mPas, the “Viscosity 20° C.” value (concentration 398 mgI/ml) was 16 mPas and the “Viscosity 20° C.” value (concentration 458 mgI/ml) was 30 mPas. It also gave a Viscosity (iodine concentration 458 mgI/mL) of 30 mPas.

Source: US6448442B1, “Contrast media” (Amersham Health AS, priority 1999, dated 2002)
